From patent US20260070902A1, “SULFONYL DERIVATIVES AS CCR6 INHIBITORS” (Hoffmann-La Roche Inc., priority 2022, published 2026) come the findings set out here.

Holding throughout (assay type): cell-based
Assay [1] addresses T1, human CCR6 (Homo sapiens, UniProt P51684).
T1 sequence (P51684 1-374): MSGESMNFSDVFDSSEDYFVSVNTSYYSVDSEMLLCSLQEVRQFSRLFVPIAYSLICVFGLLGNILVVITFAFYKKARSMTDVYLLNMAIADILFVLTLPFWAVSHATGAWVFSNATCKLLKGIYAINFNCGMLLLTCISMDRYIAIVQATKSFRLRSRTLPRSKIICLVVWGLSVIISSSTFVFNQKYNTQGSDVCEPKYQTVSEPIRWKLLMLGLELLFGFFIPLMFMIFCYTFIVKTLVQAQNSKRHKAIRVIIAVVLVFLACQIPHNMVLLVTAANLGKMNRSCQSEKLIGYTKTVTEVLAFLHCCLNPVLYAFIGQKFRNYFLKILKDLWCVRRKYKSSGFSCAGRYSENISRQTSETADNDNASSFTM
Kind of assay: CHO-K1 CCR6 chemotaxis assay towards CCL20. The note with it: relative -Log IC50; CHO-K1 cells overexpressing human CCR6; migration towards 100 ng/ml CCL20; 4 h. An outline of the steps: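 Human CCR6-overexpressing CHO-K1 cells (2*10^6 cells/ml) were preincubated 30 min at 37 °C with compound (0.2% DMSO), then allowed to migrate 4 h through 8 µm Transwell pores toward 100 ng/ml CCL20. Migrated cells were counted by CellTiter Glo. −Log IC50 came from four-parameter fits normalised to DMSO without/with CCL20.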

Assay [2] has as its system Human CD4+ T cells. Description: CD4+ T cells chemotaxis assay towards CCL20. The note with it: Homo sapiens, CD4+ T cell, 3 h, relative -Log IC50, human CD4+ T cells stimulated with anti-CD3 and anti-CD28, migration towards 150 ng/ml CCL20. A digest of the protocol: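 Donor cells were stimulated overnight with anti-CD3/anti-CD28, then preincubated with compound for 30 min at 37° C (0.2% DMSO final). Migration through […]-pore Transwells toward 150 ng/ml CCL20 ran for 3 h at 37° C. Migrated cells were counted by CellTiter Glo, and relative −Log IC50 came from a four-parameter fit of % inhibition.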

In assay [3] the target is T1, human CCR6. Kind of assay: Human CCR6-CRE reporter assay. Also on record: The second construct contained the open reading frame of human CCR6 in the pUNO1 backbone; host or cells: 293FT cells. As to conditions: relative -Log IC50; 293FT cells transfected with human CCR6 and CRE-luciferase reporter; 6 μM Forskolin, 6 nM CCL20; 5 h. A digest of the protocol:
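293FT cells transiently co-transfected with human CCR6 and a CRE-luc2P reporter, used 48 h later. Compounds incubated with cells in medium containing 6 μM Forskolin and 6 nM CCL20 (assay-medium levels), 0.1% DMSO final, 5 h at 37° C; luminescence read, relative −Log IC50 from four-parameter fit.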
(Reporter assays use an easily measured gene product as a stand-in for the process of interest.)

In general, IC50 refers to the point on the concentration scale where inhibition reaches its midpoint. A low value points to greater potency. As for `Cc1nnc2cnc(-c3ccc(S(=N)(=O)[C@H]4CC[C@H](Nc5ccc(S(F)(F)(F)(F)F)cc5)CC4)cc3)cn12` (stereo partly drawn) [Example 170, (4-{3-methyl-[1,2,4]triazolo[4,3-a]pyrazin-6-yl}phenyl) [trans-4-{[4-(pentafluoro-λ^6-sulfanyl)phenyl]amino}cyclohexyl](imino)-λ^6-sulfanone], the IC50 was 2 µM in assay [1], 10 µM in assay [2] and 0.501 µM in assay [3].
For `CC(C)c1nnc2ccc(-c3ccc(S(=O)(=O)N4CCC(Nc5ccc(S(F)(F)(F)(F)F)cn5)CC4)cc3)cn12` [Example 172, 5-(pentafluoro-λ^6-sulfanyl)-N-(1-{4-[3-(propan-2-yl)-[1,2,4]triazolo[4,3-a]pyridin-6-yl]benzenesulfonyl}piperidin-4-yl)pyridin-2-amine], in that order: 0.00794 µM, 0.001 µM and 0.02 µM.
For `O=S(=O)(c1ccc(-c2ccc3nccn3c2)cc1)N1CCC(Nc2ccc(S(F)(F)(F)(F)F)cn2)CC1` [Example 173, N-[1-(4-{imidazo[1,2-a]pyridin-6-yl}benzenesulfonyl)piperidin-4-yl]-5-(pentafluoro-λ^6-sulfanyl)pyridin-2-amine], in that order: 0.00398 µM, 0.00251 µM and 0.0316 µM.
For `Cc1nnc2ccc(-c3ccc(S(=O)(=O)N4CCC(Nc5ccc(S(F)(F)(F)(F)F)cn5)CC4)cc3)cn12` [Example 174, N-[1-(4-{3-methyl-[1,2,4]triazolo[4,3-a]pyridin-6-yl}benzenesulfonyl)piperidin-4-yl]-5-(pentafluoro-λ^6-sulfanyl)pyridin-2-amine], in that order: 0.00501 µM, 0.00251 µM and 0.0251 µM.
`NC(=O)c1cc(-c2ccc(S(=O)(=O)N3CCC(Nc4ccc(S(F)(F)(F)(F)F)cn4)CC3)cc2)ccn1` [Example 175, 4-{4-[(4-{[5-(pentafluoro-λ^6-sulfanyl)pyridin-2-yl]amino}piperidin-1-yl)sulfonyl]phenyl}pyridine-2-carboxamide]: the IC50 is 0.01 µM in assay [1], 0.00501 µM in assay [2] and 0.02 µM in assay [3].
With `O=S(=O)(c1ccc(-c2ccc3nnc(C(F)F)n3c2)cc1)[C@H]1CC[C@H](Nc2ccc(S(F)(F)(F)(F)F)cc2)CC1` [Example 176, 4-(pentafluoro-λ^6-sulfanyl)-N-[trans-4-{4-[3-(difluoromethyl)-[1,2,4]triazolo[4,3-a]pyridin-6-yl]benzenesulfonyl}cyclohexyl]aniline], the IC50 in assay [1] is 0.01 µM; in assay [2], 0.00158 µM; in assay [3], 0.126 µM.
In the same order, the values of `NC(=O)c1cc(-c2ccc(S(=O)(=O)N3CCC(Nc4ccc(S(F)(F)(F)(F)F)cc4)CC3)cc2)ccn1` [Example 177, 4-{4-[(4-{[4-(pentafluoro-λ^6-sulfanyl)phenyl]amino}piperidin-1-yl)sulfonyl]phenyl}pyridine-2-carboxamide] are 0.0794 µM, 0.0126 µM and 0.0794 µM.
For `CC(C)c1nnc2ccc(-c3ccc(S(=O)(=O)[C@H]4CC[C@H](Nc5ccc(S(F)(F)(F)(F)F)cn5)CC4)cc3)cn12` [Example 178, 5-(pentafluoro-λ^6-sulfanyl)-N-[trans-4-{4-[3-(propan-2-yl)-[1,2,4]triazolo[4,3-a]pyridin-6-yl]benzenesulfonyl}cyclohexyl]pyridin-2-amine], in that order: 0.01 µM, 0.000794 µM and 0.0631 µM.
In the same order, the values of `Cc1nnc2ccc(-c3ccc(S(=O)(=O)[C@H]4CC[C@H](Nc5ccc(S(F)(F)(F)(F)F)cn5)CC4)cc3)cn12` [Example 179, 5-(pentafluoro-λ^6-sulfanyl)-N-[trans-4-(4-{3-methyl-[1,2,4]triazolo[4,3-a]pyridin-6-yl}benzenesulfonyl)cyclohexyl]pyridin-2-amine] are 0.01 µM, 0.00631 µM and 0.0794 µM.
For `O=S(=O)(c1ccc(-c2ccc3nccn3c2)cc1)[C@H]1CC[C@H](Nc2ccc(S(F)(F)(F)(F)F)cn2)CC1` [Example 180, 5-(pentafluoro-λ^6-sulfanyl)-N-[trans-4-(4-{imidazo[1,2-a]pyridin-6-yl}benzenesulfonyl)cyclohexyl]pyridin-2-amine], the IC50 in assay [1] is 0.0251 µM; in assay [2] it was 0.00794 µM; in assay [3], 0.1 µM.
